PMC9919437 (Molecules, 2023)
Read-outs that look alike come from different tables or passages of the source.

How the values were obtained:
[1] = molecular target: T1, BC2L-C-Nt (N-terminal lectin domain of BC2L-C) (Burkholderia cenocepacia, UniProt B4EH86); assay: biochemical; type: binding
[2] = molecular target: T1, BC2L-C-Nt (N-terminal lectin domain of BC2L-C); details: cited from earlier work
[3] = tested on: BC2L-C-Nt; assay: STD-NMR competition experiment with α-methyl fucoside; type: binding, Burkholderia cenocepacia; details: 1 mol equiv α-methyl fucoside; for 4 aromatic protons only
Protocol: A great deal of additional information can be gained from STD competition assays, where a known binder is added to a protein–ligand mixture with the aim of displacing the ligand under study and confirm that they are both competing for the same binding site. […] The same competition experiment was performed for 4 in the presence of α-methyl fucoside. The reduction in STD intensity after the addition of the monosaccharide can be evaluated only for the aromatic protons, since the signals of galactose and methyl fucoside overlap in the region 3.8–3.6 ppm, and can be estimated around 60% (Table S2).
NMR experiments were performed on 400 MHz Bruker Avance III and 600 MHz Bruker Avance spectrometers at 298 K in deuterated or aqueous phosphate buffer at pH 7.4. When required, water suppression was achieved by excitation sculpting sequence from standard Bruker library. STD NMR experiments were performed using WATERGATE 3-9-19 pulse sequence for water suppression. […] Intensities of all STD effects (absolute STD) were calculated by division through integrals over the respective signals in STD reference spectra. The different signal intensities of the individual protons are best analyzed from the integral values in the reference and STD spectra, respectively. […]

T1 sequence (B4EH86 1-132 limits assumed): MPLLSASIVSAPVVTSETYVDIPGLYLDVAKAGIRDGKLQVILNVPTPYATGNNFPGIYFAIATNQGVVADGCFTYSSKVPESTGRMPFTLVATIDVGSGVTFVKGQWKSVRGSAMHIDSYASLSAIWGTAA

## CC(=O)N[C@H]1[C@H](O[C@H]2[C@@H](O)[C@@H](CO)OC(O)[C@@H]2O)O[C@H](CO)[C@@H](O)[C@@H]1O[C@@H]1O[C@H](CO)[C@H](O)[C@H](O)[C@H]1O[C@@H]1O[C@@H](C)[C@@H](O)[C@@H](O)[C@@H]1O (some centres unmarked) [H-type 1 tetrasaccharide, Fucα1-2Galβ1-3GlcNAcβ1-3Gal, reference compound]
[1]
  n (stoichiometry): 0.81
[1]; pH 7, read-out: KD
  Kd: 56 ± 4.5 µM

## C[C@@H]1O[C@H](C#Cc2ccc(C(C)(C)CN)cc2)[C@@H](O)[C@H](O)[C@@H]1O [compound 1]
[2]
  Kd: 290 µM

## C[C@@H]1O[C@H](NC(=O)c2ccc(-c3cccc(CN)c3)o2)[C@@H](O)[C@H](O)[C@@H]1O [compound 3]
[1]
  times less potent than the H-type 1 tetrasaccharide: 3
[3]
  decrease of STD signal of the ligand after addition of α-methyl fucoside: 20–26%

## NCc1cccc(-c2ccc(C(=O)NC3OC(CO)C(O)C(O)C3O)o2)c1 (centres unmarked) [compound 4]
[1]
  factor by which activity is lower than that of 3: 2.5
[1]; KD
  Kd: 390 µM
[3]
  decrease of STD signal of the ligand after addition of α-methyl fucoside: around 60%
